Several values for one entry are separate records, joined by “and”; a condition that tells them apart may be missing. Identical values can stand only once.
B1: eCIRP: extracellular cold-inducible RNA-binding protein; recombinant murine, produced in our laboratory (protein, UniProt P60824 1-172, looked up)
Cold-inducible RNA-binding …: MASDEGKLFVGGLSFDTNEQALEQVFSKYGQISEVVVVKDRETQRSRGFGFVTFENIDDAKDAMMAMNGKSVDGRQIRVDQAGKSSDNRSRGYRGGSAGGRGFFRGGRSRGRGFSRGGGDRGYGGGRFESRSGGYGGSRDYYASRSQGGSYGYRSSGGSYRDSYDSYATHNE

How the values were obtained:
TNF-α [1] = test: Lung TNF-α mRNA, CLP mice; format: in vivo, mouse; conditions: 20 h; for lung TNF-α mRNA (Figure 6F): 10 mg/kg NDI, vs sham, individual mice
Procedure: (§1) Sepsis was induced in mice by cecal ligation and puncture (CLP) as described previously ([45], [46]). Mice were anesthetized with isoflurane to a surgical plane and placed in a supine position. CLP was performed through a midline laparotomy. The abdomen was shaved and disinfected. Through a 2 cm midline incision, the cecum was exposed and then ligated with a 4-0 silk suture 1 cm proximal from the distal cecal extremity. For 20-hour CLP experiments, the cecum was punctured twice with a 22-gauge needle. A small amount of cecal content was extruded through both holes, and the ligated cecum was returned to the peritoneal cavity. The wound was closed in layers. For 10-day sepsis survival studies, the cecum was punctured once with a 22-gauge needle. A small amount of cecal content was extruded. Mice were allocated to the vehicle and adoptive transfer of DLL4^+ neutrophils or DLL4^– neutrophils groups. Adoptive transfer mice received a retro-orbital injection of 1 × 10^6 cells per mouse DLL4^+ neutrophils or DLL4^– neutrophils in […] phosphate-buffered saline (PBS) immediately after abdominal closure in both the 20-hour experiments and the survival study. Vehicle groups received an equivalent volume of PBS, while treatment groups received NDI 10 mg/kg in […] PBS via retro-orbital injection after CLP. This dose was chosen primarily on the basis of our laboratory’s prior experience, we have consistently used this dose in mouse CLP models with reproducible efficacy and without observable toxicity ([39], [44]). Sham-operated animals underwent a laparotomy without CLP. After closure, the mice received a subcutaneous injection of 0.5 mL of normal saline to overcome surgery-induced dehydration. For 20-hour experiments, animals were not injected with antibiotics; however, for survival studies, animals were given 0.5 mg per kg body weight imipenem (lot 4D21K05, WG Critical Care LLC) subcutaneously in 0.5 mL saline once at the end of CLP. All mice were subcutaneously injected with a single dose of 0.1 mg/kg buprenorphine after CLP. […]

C57BL/6 mice, CLP sepsis [2] = test: Lung water content, CLP mice; format: in vivo, mouse; conditions: 20 h; for lung water content (wet weight – dry weight)/wet weight (Figure 6K): 10 mg/kg NDI, individual mice
Procedure: Sepsis was induced in mice by cecal ligation and puncture (CLP) as described previously ([45], [46]). Mice were anesthetized with isoflurane to a surgical plane and placed in a supine position. CLP was performed through a midline laparotomy. The abdomen was shaved and disinfected. Through a 2 cm midline incision, the cecum was exposed and then ligated with a 4-0 silk suture 1 cm proximal from the distal cecal extremity. […] A small amount of cecal content was extruded through both holes, and the ligated cecum was returned to the peritoneal cavity. The wound was closed in layers. […] A small amount of cecal content was extruded. […] Vehicle groups received an equivalent volume of PBS, while treatment groups received NDI 10 mg/kg in […] PBS via retro-orbital injection after CLP. This dose was chosen primarily on the basis of our laboratory’s prior experience, we have consistently used this dose in mouse CLP models with reproducible efficacy and without observable toxicity ([39], [44]). Sham-operated animals underwent a laparotomy without CLP. After closure, the mice received a subcutaneous injection of 0.5 mL of normal saline to overcome surgery-induced dehydration. […] All mice were subcutaneously injected with a single dose of 0.1 mg/kg buprenorphine after CLP. Lung vascular leakage was quantified using the Evans blue dye–labeled (EBD-labeled) albumin extravasation assay ([48]). […] Sigma-Aldrich) via retro-orbital injection. At 1 hour after EBD administration (4.5 hours after the end of resuscitation), the lungs were perfused with heparinized (1 U/mL) normal saline via right ventricle injection to remove intravascular dye. The whole lung was dehydrated for 48 hours at 60°C, immersed in formamide (1 mL/g wet weight; Sigma-Aldrich) at 37°C for 48 hours, and centrifuged at 5,000g for 30 minutes. The amount of extracted EBD in the supernatant was quantified by spectrophotometry. The concentration of extravasated EBD-albumin in lung homogenates was expressed as nanograms EBD per milligram of dry lung tissue. Lung water content was calculated as (wet weight – dry weight)/wet weight %.

IL-6 [3] = test: Serum IL-6, CLP mice, ELISA; format: in vivo, mouse; conditions: DLL4^+ neutrophil-injected CLP mice, 10 mg/kg, 20 h
Procedure: (§2) Sepsis was induced in mice by cecal ligation and puncture (CLP) as described previously ([45], [46]). Mice were anesthetized with isoflurane to a surgical plane and placed in a supine position. CLP was performed through a midline laparotomy. The abdomen was shaved and disinfected. Through a 2 cm midline incision, the cecum was exposed and then ligated with a 4-0 silk suture 1 cm proximal from the distal cecal extremity. For 20-hour CLP experiments, the cecum was punctured twice with a 22-gauge needle. A small amount of cecal content was extruded through both holes, and the ligated cecum was returned to the peritoneal cavity. The wound was closed in layers. For 10-day sepsis survival studies, the cecum was punctured once with a 22-gauge needle. A small amount of cecal content was extruded. Mice were allocated to the vehicle and adoptive transfer of DLL4^+ neutrophils or DLL4^– neutrophils groups. […]
(§3) Blood was collected by heart puncture and centrifuged at 1,500g and 4°C for 10 minutes, and the plasma was separated to assess cytokine levels using enzyme-linked immunosorbent assay (ELISA) kits (BD Biosciences). The plasma TNF-α (catalog 558534) and IL-6 (catalog 555240) levels were measured by ELISA.

C57BL/6 mice, CLP sepsis [4] = conditions: mouse, in vivo, 10 mg/kg
Procedure: as §2, with “groups. Adoptive transfer mice received a retro-orbital injection of 1 × 10^6 cells per mouse DLL4^+ neutrophils or DLL4^– neutrophils in […] phosphate-buffered saline (PBS) immediately after abdominal closure in both the 20-hour experiments and the survival study. Vehicle groups received an equivalent volume of PBS, while treatment groups received NDI 10 mg/kg in […] PBS via retro-orbital injection after CLP.” for “groups.”

IL-6 [5] = test: Lung IL-6 mRNA, CLP mice; format: in vivo, mouse; conditions: 20 h; for lung IL-6 mRNA (Figure 6G): 10 mg/kg NDI, vs sham, individual mice
Procedure: as §1

TNF-α [6] = test: Serum TNF-α, CLP mice, ELISA; format: in vivo, mouse; conditions: DLL4^+ neutrophil-injected CLP mice, 10 mg/kg, 20 h
Procedure: as §2, §3

DLL3 = DLL3 mRNA in eCIRP-treated BMDNs, qPCR; format: cell-based, mouse; conditions: for DLL3 mRNA: DLL3-CIRP
Procedure: mRNA was extracted from lung tissues with TRIzol reagent (Invitrogen, Thermo Fisher Scientific). An equal amount ([…]) of mRNA was reverse-transcribed into cDNA using the reverse transcriptase enzyme (Invitrogen, Thermo Fisher Scientific). qPCR was performed from the diluted cDNA templates with forward and reverse primers (Supplemental Table 4) and SYBR Green PCR Master Mix (Applied Biosystems, Thermo Fisher Scientific) using an Applied Biosystems 7300 real-time PCR machine. Mouse β-actin served as an internal control gene for normalization. Relative expression of mRNA was represented as fold change in comparison with the sham group.
BMDNs (1 × 10^6) were treated with eCIRP (1 μg/mL) for 12 hours, and DLL1, DLL3, and DLL4 were analyzed by qPCR.

[7] = DLL4^+ neutrophil-injected CLP mice, 10 mg/kg

Molecule	effect on lung TNF-α mRNA (TNF-α [1]; [7])	lung TNF-α mRNA (Figure 6F) (TNF-α [1]; DLL4^+ neutrophils + CLP)	lung TNF-α mRNA (Figure 6F) (TNF-α [1]; DLL4^– neutrophils + CLP)	effect on lung water content (C57BL/6 mice, CLP sepsis [2]; [7])	lung water content (wet weight – dry weight)/wet weight (Figure 6K) (C57BL/6 mice, CLP sepsis [2]; DLL4^+ neutrophils + CLP)	lung water content (wet weight – dry weight)/wet weight (Figure 6K) (C57BL/6 mice, CLP sepsis [2]; DLL4^– neutrophils + CLP)	effect on serum IL-6 (IL-6 [3])	adverse effects (C57BL/6 mice, CLP sepsis [4])	effect on lung IL-6 mRNA (IL-6 [5]; [7])	lung IL-6 mRNA (Figure 6G) (IL-6 [5]; DLL4^+ neutrophils + CLP)	lung IL-6 mRNA (Figure 6G) (IL-6 [5]; DLL4^– neutrophils + CLP)	effect on serum TNF-α (TNF-α [6])	effect on DLL3 expression (DLL3; BMDNs, eCIRP 1 μg/mL, 12 h)	DLL3 mRNA (DLL3; replicate 1)	DLL3 mRNA (DLL3; replicate 2)	DLL3 mRNA (DLL3; replicate 3)	DLL3 mRNA (DLL3; replicate 4)	DLL3 mRNA (DLL3; replicate 5)	DLL3 mRNA (DLL3; replicate 6)
ECAGSPCHNGGTCEDGI [NDI]	significantly decreased the mRNA expression of TNF-α, IL-6, and KC in lung tissues	4.255 fold change and 2.291 fold change and 5.674 fold change and 4.568 fold change and 3.143 fold change and 2.408 fold change and 0.5968 fold change and 4.125 fold change and 0.8652 fold change and 4.064 fold change and 0.4766 fold change and 9.1932 fold change and 5.227 fold change and 8.424 fold change	8.678 fold change and 9.157 fold change and 5.574 fold change and 9.371 fold change and 6.524 fold change and 4.342 fold change and 3.267 fold change and 5.109 fold change and 7.731 fold change	significantly attenuated these effects, reducing both lung water content and Evans blue dye content	71.922% and 71.5282% and 71.1472% and 70.6857% and 70.3749% and 72.6514% and 72.546% and 71.2677% and 69.0684% and 72.1189% and 71.6599% and 71.2762%	69.6732% and 70.471% and 69.6655% and 68.9338% and 68.9855% and 70.575% and 70.9924% and 68.7155% and 69.153%	significantly reduced the serum levels of hepatic and cell injury markers and proinflammatory cytokines	lack of observed adverse effects in treated animals	significantly decreased the mRNA expression of TNF-α, IL-6, and KC in lung tissues	1.4984 fold change and 1.1005 fold change and 1.349 fold change and 4.056 fold change and 2.97 fold change and 2.032 fold change and 0.08381 fold change and 1.663 fold change and 5.861 fold change and 2.132 fold change and 6.132 fold change	2.369 fold change and 4.979 fold change and 4.806 fold change and 5.561 fold change and 5.531 fold change and 4.244 fold change and 1.214 fold change and 2.2297 fold change and 4.655 fold change	significantly reduced the serum levels of hepatic and cell injury markers and proinflammatory cytokines	–	–	–	–	–	–	–
B1	–	–	–	–	–	–	–	–	–	–	–	–	no significant induction of DLL1 or DLL3	0.2832	1.673	0.009923	0.01002	0.02772	0.1715
